Experimental findings from US20260232666A1, “COMPOSITIONS AND METHODS FOR INHIBITION OF RAS” (TheRas, Inc., priority 2023, published 2026) are described below.

The IC50 is the concentration that inhibits the measured activity by half. A high value points to weaker potency.

Test [1] has as its target T1, Avi-KRAS G12C (1-169) GppNHp/RAF1 RBD-3×FLAG (52-151) (Homo sapiens, UniProt P01116, G12C).
T1 construct: Avi-KRAS G12C (1-169) GppNHp; Avi (N)
Description: Raf1 RBD-KRAS G12C-GppNHp disruption assay (protein:protein interaction HTRF). The test is classed as biochemical. As for the experimental part:
Biological Example 2: Disrupting KRAS G12C-Effector Binding (Protein: Protein Interaction HTRF Assay)
A protein: protein interaction (PPI) Homogeneous Time Resolved Fluorescence (HTRF) assay was used to determine the effectiveness of compounds of the present disclosure in disrupting KRAS G12C protein and effector (RAF1 Ras Binding Domain (RBD)) binding.
The HTRF assay used the following reagents and proteins: 50 nM Avi-KRAS G12C (1-169) GppNHp/RAF1 RBD-3×FLAG (52-151); 35 nM Avi-PI3K RBD-3×FLAG; Assay Buffer: 50 mM Tris pH 7.5, 100 mM NaCl, 5 mM MgCl2, 0.1% BSA, 0.01% Tween 20, 10% DMSO; Bead Buffer: 50 mM Tris pH 7.5, 0.01% Tween 20; Assay volume: 20 μL (384 well plate-low volume format); and Compound titration: 30-0.02 μM, 3× dilution series.
The HTRF assay employed the following protocol:
Compounds were dispensed in assay plate (384-well, Grenier Bio-One #784075) using Echo (model 555) with dose response settings: 200 nL final volume, titration from 100 μM as a 10-point dilution series. KRAS proteins were prepared in assay buffer, and dispensed on plates, 5 μL per well, then incubated for 1 h at room temperature, with 700 rpm shaking. RAF1 RBD were prepared in assay buffer, dispensed onto plates, 5 μL per well, and then incubated for 1 h at room temperature, with 700 rpm shaking. Reagent mix was then prepared and dispensed on plates, 10 μL per well, and then incubated for 1 h at room temperature, with 700 rpm shaking.
Plates were analyzed on an Envision plate reader using the following setting: Excitation 320 nm, Bandwidth 75 nm; Emission 615 nm, Bandwidth 85 nm; Gain 100%; Flashes 100; Lag 60 μs. Data was reported as percentage of activity, with DMSO as 100%. Data was plotted and analyzed using Prism 8.
The percent of modification of GppNHp, GTP, or GDP loaded KRAS G12C by MALDI-TOF MS, biochemical Raf1 RBD-KRAS G12C-GppNHp disruption assay IC50, and pERK inhibition IC50 of selected compounds described herein are shown in Table 4. For percent of modification at 15 minutes (MALDI-TOF MS) of GppNHp, GTP, or GDP loaded KRAS G12C: A: percent of modification ≥70%; B: 50≤percent of modification <70%; C: 10%≤percent of modification <50%; D: percent of modification <10%. […] For pERK inhibition in H358 cell assay: A: IC50≤0.1 μM; B: 0.1 μM<IC50≤1 μM; C: IC50>1 μM. Blanks in the table represent that compound was not tested in the indicated assay.

For test [2], the target named is T2, GDP-loaded KRAS4b (amino acids 1-169) G12C/C118S protein (Homo sapiens, UniProt P01116, C118S/G12C).
T2 construct: KRAS4b (amino acids 1-169) G12C/C118S protein; made in house
Description: Covalent cysteine 12 modification by MALDI-TOF MS, GDP-loaded KRAS G12C. The test is classed as binding. To be noted: 15 minutes reaction time point. Put shortly:
(§1)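 With several adducts, each species' height is expressed as a fraction of all observed protein peaks, scored on linear-mode spectra. Reactions run at pH 7.3 (HEPES, 150 mM NaCl, 1 mM MgCl2), using 1 μM protein and a 1:2.5 protein:compound ratio, and are sampled after 15 minutes in the dark.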

Test [3] has as its target T3, GTP-loaded KRAS4b (amino acids 1-169) G12C/C118S protein (Homo sapiens, UniProt P01116, C118S/G12C).
T3 construct: KRAS4b (amino acids 1-169) G12C/C118S protein; made in house
The experiment in a line: Covalent cysteine 12 modification by MALDI-TOF MS, GTP-loaded KRAS G12C. To be noted: 15 minutes reaction time point. It counts as binding. Put shortly: as §1

The test system of another test is pERK in NCI-H358 cells. The experiment in a line: Cell-based pERK HTRF assay (pERK inhibition in H358 cells). To be noted: Homo sapiens, NCI-H358, 0.5 h, 30 min incubation. Put shortly:
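NCI-H358 cells were seeded at 4×10^4 cells/well in RPMI/10% FBS, then treated next day for 30 min at 0.25% DMSO (9-point, 3-fold series from 75 μM). Lysates were read by HTRF (d2/Eu cryptate antibody pair, 615 nm emission) after 4–24 h at room temperature to give pERK IC50.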
On the technique in general: Time-resolved FRET reads energy transfer from a long-lived donor to a nearby acceptor.

As to `C=CC(=O)N1CC[C@H](N(C)c2nc(OC[C@@]34CCCN3C[C@H](F)C4)nc3c(F)c(-c4ccc(F)c5sc(N)c(C#N)c45)c(C(F)(F)F)cc23)[C@@H]1C` [Compound 5], the half-maximal inhibitory concentration (IC50) in test [1] is < 500 nM. Further, in test [2], the “GDP-KRAS G12C percent of modification” value was “A (percent of modification ≥70%)”.
Take `C=CC(=O)N1CC[C@@H](N(C)c2nc(OC[C@@]34CCCN3C[C@H](F)C4)nc3c(F)c(-c4ccc(F)c5sc(N)c(C#N)c45)c(C(F)(F)F)cc23)[C@H]1C` [Compound 6]: the “GTP-KRAS G12C percent of modification” value in test [3] was “C (10%≤percent of modification <50%)”. Also, in test [1], the IC50 was < 500 nM. The “GDP-KRAS G12C percent of modification” value in test [2] is recorded as “B (50≤percent of modification <70%)”.
Consider `C=CC(=O)N1CC[C@@H](N(C)c2nc(OC[C@@H]3CCCN3CC)nc3c(F)c(-c4ccc(F)c5sc(N)c(C#N)c45)c(Cl)cc23)[C@H]1C` [Compound 89], for which the IC50 in the test with pERK in NCI-H358 cells is < 100 nM; in test [1], < 500 nM. For the same compound, the “GDP-KRAS G12C percent of modification” value in test [2] is “A (percent of modification ≥70%)”.
